Paper PMC4929936, “Isoform-specific modulation of the chemical sensitivity of conserved TRPA1 channel in the major honeybee ectoparasitic mite, Tropilaelaps mercedesae” (Open Biology, 2016)

What was measured:
[1] = target: T1, TmTRPA1b (Tropilaelaps mercedesae, UniProt A0A193PK79); assay: Fura-2 calcium imaging, HEK293; type: cell-based; conditions: pH 7.4, 2 mM CaCl2
T1 construct: gene TRPA1; full-length, untagged, transiently expressed in HEK293 cells; expected 143 kD; 15 ankyrin repeats
T1 sequence (A0A193PK79 1-1258): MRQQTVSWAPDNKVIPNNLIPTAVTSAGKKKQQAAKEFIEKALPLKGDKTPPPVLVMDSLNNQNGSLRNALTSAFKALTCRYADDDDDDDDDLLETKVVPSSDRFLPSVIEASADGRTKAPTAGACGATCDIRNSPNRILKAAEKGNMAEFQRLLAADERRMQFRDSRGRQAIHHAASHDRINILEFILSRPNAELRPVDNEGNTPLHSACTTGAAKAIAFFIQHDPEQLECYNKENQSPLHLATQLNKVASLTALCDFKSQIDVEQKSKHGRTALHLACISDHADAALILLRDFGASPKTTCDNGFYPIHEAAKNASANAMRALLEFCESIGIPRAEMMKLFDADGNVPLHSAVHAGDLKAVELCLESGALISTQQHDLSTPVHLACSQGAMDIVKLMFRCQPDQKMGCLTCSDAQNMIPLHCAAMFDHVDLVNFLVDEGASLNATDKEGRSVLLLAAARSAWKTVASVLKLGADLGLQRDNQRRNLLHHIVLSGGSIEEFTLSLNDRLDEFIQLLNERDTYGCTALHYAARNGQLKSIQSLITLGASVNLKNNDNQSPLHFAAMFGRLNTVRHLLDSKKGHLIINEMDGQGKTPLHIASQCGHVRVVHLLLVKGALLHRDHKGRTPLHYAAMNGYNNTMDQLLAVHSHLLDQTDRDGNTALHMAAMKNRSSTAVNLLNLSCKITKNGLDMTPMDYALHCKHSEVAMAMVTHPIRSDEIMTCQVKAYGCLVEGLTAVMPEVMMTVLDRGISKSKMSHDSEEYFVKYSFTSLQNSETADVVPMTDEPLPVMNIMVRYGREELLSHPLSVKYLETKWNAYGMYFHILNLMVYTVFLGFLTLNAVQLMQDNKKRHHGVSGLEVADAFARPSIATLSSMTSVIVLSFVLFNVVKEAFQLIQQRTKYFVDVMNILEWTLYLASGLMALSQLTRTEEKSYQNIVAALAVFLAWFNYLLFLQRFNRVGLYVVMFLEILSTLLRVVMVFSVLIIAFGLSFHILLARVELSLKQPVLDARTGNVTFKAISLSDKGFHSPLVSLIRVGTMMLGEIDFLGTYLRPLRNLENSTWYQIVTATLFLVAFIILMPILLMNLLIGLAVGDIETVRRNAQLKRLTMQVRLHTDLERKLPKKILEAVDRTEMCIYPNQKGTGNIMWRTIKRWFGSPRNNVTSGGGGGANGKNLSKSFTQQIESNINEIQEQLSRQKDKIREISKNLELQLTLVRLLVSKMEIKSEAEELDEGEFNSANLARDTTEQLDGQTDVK

[2] = target: T2, TmTRPA1a (Tropilaelaps mercedesae, UniProt A0A193PK31); assay: Fura-2 calcium imaging, HEK293; type: cell-based; conditions: activator, pH 7.4, 2 mM CaCl2
T2 construct: gene TRPA1; full-length, untagged, transiently expressed in HEK293 cells; expected 134 kD; 15 ankyrin repeats
T2 sequence (A0A193PK31 1-1172): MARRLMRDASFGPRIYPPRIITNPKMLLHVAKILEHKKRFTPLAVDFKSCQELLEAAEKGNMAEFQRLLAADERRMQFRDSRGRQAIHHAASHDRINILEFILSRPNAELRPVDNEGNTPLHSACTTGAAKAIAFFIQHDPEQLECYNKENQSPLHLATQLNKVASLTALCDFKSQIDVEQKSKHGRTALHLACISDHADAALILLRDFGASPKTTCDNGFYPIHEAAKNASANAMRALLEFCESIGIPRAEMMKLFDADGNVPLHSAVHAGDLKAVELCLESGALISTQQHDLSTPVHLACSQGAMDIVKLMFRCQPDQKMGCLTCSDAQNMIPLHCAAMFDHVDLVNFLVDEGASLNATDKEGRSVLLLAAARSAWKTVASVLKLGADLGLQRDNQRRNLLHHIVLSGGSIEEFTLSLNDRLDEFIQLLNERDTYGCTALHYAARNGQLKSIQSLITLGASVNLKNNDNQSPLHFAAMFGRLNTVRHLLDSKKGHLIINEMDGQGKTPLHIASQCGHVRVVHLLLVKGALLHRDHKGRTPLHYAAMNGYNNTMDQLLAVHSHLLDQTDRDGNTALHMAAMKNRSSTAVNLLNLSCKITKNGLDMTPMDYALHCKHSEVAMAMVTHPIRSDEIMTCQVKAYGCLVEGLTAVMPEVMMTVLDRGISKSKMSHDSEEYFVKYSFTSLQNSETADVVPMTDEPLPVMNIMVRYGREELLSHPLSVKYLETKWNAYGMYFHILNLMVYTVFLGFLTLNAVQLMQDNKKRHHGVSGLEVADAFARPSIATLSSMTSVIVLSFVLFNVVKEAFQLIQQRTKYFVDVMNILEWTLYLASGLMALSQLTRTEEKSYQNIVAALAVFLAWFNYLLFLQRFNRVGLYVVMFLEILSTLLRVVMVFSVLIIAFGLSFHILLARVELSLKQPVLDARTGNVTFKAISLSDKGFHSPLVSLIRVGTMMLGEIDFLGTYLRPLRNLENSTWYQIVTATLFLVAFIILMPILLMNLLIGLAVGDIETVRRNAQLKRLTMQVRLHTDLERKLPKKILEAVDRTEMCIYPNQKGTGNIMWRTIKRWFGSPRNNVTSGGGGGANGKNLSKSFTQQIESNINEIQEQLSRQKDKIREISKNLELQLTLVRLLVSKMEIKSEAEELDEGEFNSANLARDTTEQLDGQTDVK
From the text: Fura-2 calcium imaging, HEK293 on TmTRPA1a | only six of the compounds activated TmTRPA1a.

Structure (SMILES): C=CCSSCC=C [diallyl disulfide]
- Fura-2 calcium imaging, HEK293 ([1]; 1 mM, electrophilic activator): allyl isothiocyanate (AITC), cinnamaldehyde (CA) and diallyl disulfide also activate TmTRPA1b

Structure (SMILES): CC12CCC(CC1)C(C)(C)O2 [1,8-cineole]
- Fura-2 calcium imaging, HEK293 ([1]; 1 mM, activator): We observed robust activation of TmTRPA1b by eight representative plant-derived compounds

Structure (SMILES): O=CC=Cc1ccccc1 [cinnamaldehyde]
- Fura-2 calcium imaging, HEK293 ([1]; 1 mM, electrophilic activator): allyl isothiocyanate (AITC), cinnamaldehyde (CA) and diallyl disulfide also activate TmTRPA1b

Structure (SMILES): CC(C)=CCCC(C)CCO (stereo not drawn) [β-citronellol]
- Fura-2 calcium imaging, HEK293 ([1]; 1 mM, activator): We observed robust activation of TmTRPA1b by eight representative plant-derived compounds

Structure (SMILES): CC1=CCC(O)(C(C)C)CC1 (centres unmarked) [terpinen-4-ol]
- Fura-2 calcium imaging, HEK293 ([2]; 1 mM): These are nerol, 2-undecanone, carvacrol, geranylacetone, eugenol and terpinen-4-ol

Structure (SMILES): CC1=CCC(C(C)(C)O)CC1 (stereo not drawn) [α-terpineol]
- Fura-2 calcium imaging, HEK293 ([1]; 1 mM, activator): We observed robust activation of TmTRPA1b by eight representative plant-derived compounds

Structure (SMILES): CC(=O)CC/C=C(\C)CCC=C(C)C [geranylacetone]
- Fura-2 calcium imaging, HEK293 ([2]; 0.5 mM): These are nerol, 2-undecanone, carvacrol, geranylacetone, eugenol and terpinen-4-ol
- Fura-2 calcium imaging, HEK293 ([1]; 0.5 mM, activator): We observed robust activation of TmTRPA1b by eight representative plant-derived compounds

Structure (SMILES): CCCCCCCCCC(C)=O [2-undecanone]
- Fura-2 calcium imaging, HEK293 ([2]; 1 mM): only six of the compounds activated TmTRPA1a. These are nerol, 2-undecanone, carvacrol
- Fura-2 calcium imaging, HEK293 ([1]; 1 mM, activator): We observed robust activation of TmTRPA1b by eight representative plant-derived compounds

Structure (SMILES): Cc1ccc(C(C)C)cc1O [carvacrol]
- Fura-2 calcium imaging, HEK293 ([2]; 0.5 mM): only six of the compounds activated TmTRPA1a. These are nerol, 2-undecanone, carvacrol
- Fura-2 calcium imaging, HEK293 ([1]; 0.5 mM, activator): We observed robust activation of TmTRPA1b by eight representative plant-derived compounds

Structure (SMILES): C=CCN=C=S [allyl isothiocyanate]
- Fura-2 calcium imaging, HEK293 ([1]; 1 mM, electrophilic activator): allyl isothiocyanate (AITC), cinnamaldehyde (CA) and diallyl disulfide also activate TmTRPA1b

Structure (SMILES): CC/C=C\C[C@H]1C(=O)CC[C@@H]1CC(=O)OC [methyl jasmonate]
- Fura-2 calcium imaging, HEK293 ([1]; 1 mM, activator): We observed robust activation of TmTRPA1b by eight representative plant-derived compounds

Structure (SMILES): CC(C)=CCC/C(C)=C\CO [nerol]
- Fura-2 calcium imaging, HEK293 ([2]; 1 mM (Figure 5 legend; Methods state 0.5 mM)): only six of the compounds activated TmTRPA1a. These are nerol, 2-undecanone, carvacrol
- Fura-2 calcium imaging, HEK293 ([1]; 0.5 mM, activator): We observed robust activation of TmTRPA1b by eight representative plant-derived compounds

Structure (SMILES): C=CCc1ccc(O)c(OC)c1 [eugenol]
- Fura-2 calcium imaging, HEK293 ([2]; 1 mM): These are nerol, 2-undecanone, carvacrol, geranylacetone, eugenol and terpinen-4-ol
